Experimental data published in US20260115185A1, “QUINOLINE DERIVATIVES WHICH ACT AS KAPPA-OPIOID RECEPTOR ANTAGONISTS” (The Scripps Research Institute, priority 2023, published 2026).

How the values were obtained:
mu opioid receptor (MOR) = biological target: T1, mu opioid receptor (MOR) (Homo sapiens, UniProt P35372); test: OPRMu1 Discover X β-arrestin Assay, antagonist mode (U2OS cells, DAMGO EC80 challenge); assay type: cell-based
T1 construct: host or cells: U2OS (Discover X OPRMu1-U2OS, PathHunter)
T1 sequence (P35372 whole entry): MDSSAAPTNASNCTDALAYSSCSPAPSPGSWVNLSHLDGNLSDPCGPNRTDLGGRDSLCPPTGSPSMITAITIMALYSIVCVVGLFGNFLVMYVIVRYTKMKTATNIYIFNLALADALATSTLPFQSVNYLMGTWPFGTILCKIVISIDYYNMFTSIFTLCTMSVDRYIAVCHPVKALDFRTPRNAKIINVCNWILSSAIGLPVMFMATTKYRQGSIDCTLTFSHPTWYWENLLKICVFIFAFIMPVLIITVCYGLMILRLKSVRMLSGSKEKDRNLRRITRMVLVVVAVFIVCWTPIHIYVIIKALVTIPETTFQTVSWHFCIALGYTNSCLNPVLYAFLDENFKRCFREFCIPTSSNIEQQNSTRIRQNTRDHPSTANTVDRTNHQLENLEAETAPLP
How it was run: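 PathHunter U2OS cells with β-gal fragment-complementation readout for β-arrestin recruitment to OPRMu1. Cells were preincubated with compound (10-point, 1:3 series from nominal 10 micromolar) for 30 min at 37 °C, then challenged with 303 nM DAMGO (EC80) for 3 h. Luminescence gave percent inhibition.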

[1] = biological target: T2, kappa opioid receptor (KOR) (Homo sapiens, UniProt P41145); test: OPRKappa 1 Tango B-Arrestin Assay, antagonist mode (Tango OPRK1-bla U2OS cells, U50488 EC80 challenge); assay type: cell-based; details: for Selectivity (MOR/KOR): Kappa selectivity, MOR IC50 / KOR IC50; for IC50: antagonist mode, Tango OPRK1-bla U2OS cells, 6 nM U50488 challenge
T2 construct: host or cells: U2OS (Tango OPRK1-bla U2OS)
T2 sequence (P41145 whole entry): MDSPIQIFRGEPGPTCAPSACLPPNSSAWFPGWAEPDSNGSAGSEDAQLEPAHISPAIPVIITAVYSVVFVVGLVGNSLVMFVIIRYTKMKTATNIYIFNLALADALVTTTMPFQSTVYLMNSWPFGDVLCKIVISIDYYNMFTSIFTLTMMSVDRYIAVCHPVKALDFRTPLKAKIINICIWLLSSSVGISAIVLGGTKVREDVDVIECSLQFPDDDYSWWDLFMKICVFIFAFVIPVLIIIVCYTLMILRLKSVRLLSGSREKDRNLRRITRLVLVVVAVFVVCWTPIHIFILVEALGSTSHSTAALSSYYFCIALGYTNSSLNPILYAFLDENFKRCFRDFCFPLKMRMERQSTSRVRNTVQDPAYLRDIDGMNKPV
How it was run: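 Tango OPRK1-bla U2OS cells, β-arrestin recruitment read as β-lactamase FRET (CCF4-AM, 460/590 nm emission). Compounds, 10-point 1:3 series from nominal 10 µM in quadruplicate, preincubated 30 min at 37 °C, then challenged with U50488 at 6 nM final (EC80) for 4 h; percent inhibition from median ratio.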

| IC50 (mu opioid receptor (MOR)) [nM] | IC50 [1] [nM] | Structure (SMILES) | Selectivity (MOR/KOR) [1] |
| --- | --- | --- | --- |
| > 1000 | 10 to 100 | CCc1cc(F)c2nc(N3CCN(C(=O)[C@@H]4CCCCN4C)C[C@H]3C)c(-c3nc(C)no3)c(C)c2c1 [Compound 188] | +++ (between 100- to 1000-fold selective) |
| 100 to 1000 | 10 to 100 | CCc1cc(F)c2nc(N3CCN(/C(=N/C#N)NC[C@H](Cc4ccc(O)cc4)N(C)C)C[C@H]3C)c(-c3nc(C)no3)c(C)c2c1 [Compound 48] | + (less than 10-fold selectivity) |
| > 1000 | 1 to 10 | CCc1cc(F)c2nc(N3CCN(C(=O)[C@H](C)N4CCCC4)C[C@H]3C)c(-c3nc(C)no3)c(C)c2c1 [Compound 191] | ++++ (more than 1000-fold selectivity over MOR) |
| > 1000 | 10 to 100 | CCc1cc(F)c2nc(N3CCN(C(=O)CN(C)C)C[C@H]3C)c(-c3ccn(C)n3)c(C)c2c1 [Compound 171] | +++ (between 100- to 1000-fold selective) |
| > 1000 | 10 to 100 | CCc1cc(F)c2nc(N3CCN(C(=O)[C@@H](C)N4CC[C@@H](O)C4)C[C@H]3C)c(-c3nc(C)no3)c(C)c2c1 [Compound 146] | +++ (between 100- to 1000-fold selective) |
| > 1000 | > 1000 | CCc1cc(-c2ccn(C)n2)c2nc(N3CCN(C(=O)C4CCOCC4)C[C@H]3C)c(-c3ccn(C)n3)c(C)c2c1 [Compound 101] | – |
| > 1000 | 10 to 100 | CCc1cc(-c2cc[nH]n2)c2nc(N3CCNC[C@H]3C)c(-c3nc(C)no3)c(C)c2c1 [Compound 105] | ++ (between 10- and 100-fold selectivity) |
| > 1000 | < 1 | CCc1cc(F)c2nc(N3CCN(CC(C)C)C[C@H]3C)c(-c3nc(C)no3)c(C)c2c1 [Compound 25] | +++ (between 100- to 1000-fold selective) |
| > 1000 | 10 to 100 | CCc1cc(F)c2nc(N3CC[C@@H]4[C@@H](CCN4C[C@@H]4CCCOC4)C3)c(-c3ccn(C)n3)c(C)c2c1 [Compound 133] | +++ (between 100- to 1000-fold selective) |
| > 1000 | 1 to 10 | CCc1cc(F)c2nc(N3CCN(C(=O)[C@@H]4C[C@@H](O)CN4C)C[C@H]3C)c(-c3cc(C)no3)c(C)c2c1 [Compound 167] | +++ (between 100- to 1000-fold selective) |
| 100 to 1000 | 1 to 10 | CCc1cc(F)c2nc(N3CCC(N[C@@H]4CCCC(F)(F)C4)CC3)c(-c3ccn(C)n3)c(C)c2c1 [Compound 74] | ++ (between 10- and 100-fold selectivity) |
| > 1000 | ≥ 100 | CCc1cc(-c2ccnn2C)c2nc(N3CCNC4CC43)c(-c3ccn(C)n3)c(C)c2c1 (centres unmarked) [Compound 24, 2-(2,5-diazabicyclo[4.1.0]heptan-2-yl)-6-ethyl-4-methyl-3-(1-methyl-1H-pyrazol-3-yl)-8-(1-methyl-1H-pyrazol-5-yl)quinoline] | + (less than 10-fold selectivity) |
| > 1000 | 1 to 10 | CCc1cc(F)c2nc(N3CC[C@H]4[C@H](CCN4[C@@H]4CCOC4)C3)c(-c3ccn(C)n3)c(C)c2c1 [Compound 125] | ++++ (more than 1000-fold selectivity over MOR) |
| > 1000 | 10 to 100 | CCc1cc(F)c2nc(N3CC[C@H]4[C@H](CCN4[C@@H]4CCCOC4)C3)c(-c3ccn(C)n3)c(C)c2c1 [Compound 126] | ++ (between 10- and 100-fold selectivity) |
| > 1000 | 10 to 100 | CCc1cc(F)c2nc(N3CCN(C4CC5(CCOCC5)C4)C[C@H]3C)c(-c3nc(C)no3)c(C)c2c1 [Compound 42] | +++ (between 100- to 1000-fold selective) |
| 100 to 1000 | 1 to 10 | CCc1cc(-c2ccnn2C)c2nc(N3CCC(N[C@@H]4COC[C@@H]4F)CC3)c(-c3ccn(C)n3)c(C)c2c1 [Compound 88] | ++ (between 10- and 100-fold selectivity) |
| > 1000 | 1 to 10 | CCc1cc(F)c2nc(N3CCN(C(=O)C(C)(C)N4CCCC4)C[C@H]3C)c(-c3nc(C)no3)c(C)c2c1 [Compound 153] | +++ (between 100- to 1000-fold selective) |
| 100 to 1000 | 1 to 10 | CCc1cc(F)c2nc(N3CCC(N[C@@H]4CCOC4)CC3)c(-c3cc(C)n(C)n3)c(C)c2c1 [Compound 66] | +++ (between 100- to 1000-fold selective) |
| > 1000 | 10 to 100 | CCc1cc(F)c2nc(N3CCC(N[C@H]4CCOC4)CC3)c(-c3cc(C(F)(F)F)n(C)n3)c(C)c2c1 [Compound 84] | +++ (between 100- to 1000-fold selective) |
| > 1000 | 10 to 100 | CCc1cc(F)c2nc(N3CCN(C(=O)[C@H](CO)N(C)C)C[C@H]3C)c(-c3ccn(C)n3)c(C)c2c1 [Compound 178] | +++ (between 100- to 1000-fold selective) |
| > 1000 | ≥ 100 | CCc1cc(F)c2nc(N3CCN(CC4CCOCC4)[C@H](C)C3)c(-c3nc(C)no3)c(C)c2c1 [Compound 39, (R)-5-(6-ethyl-8-fluoro-4-methyl-2-(3-methyl-4-((tetrahydro-2H-pyran-4-yl)methyl)piperazin-1-yl)quinolin-3-yl)-3-methyl-1,2,4-oxadiazole] | ++ (between 10- and 100-fold selectivity) |
| > 1000 | 1 to 10 | CCc1cc(F)c2nc(N3CC[C@@H](N[C@@H]4CCOC4)C[C@@H]3C)c(-c3ccn(C)n3)c(C)c2c1 [Compound 116] | ++++ (more than 1000-fold selectivity over MOR) |
| 100 to 1000 | < 1 | CCc1cc(F)c2nc(N3CC[C@@H](N[C@@H]4CCCOC4)C[C@H]3C)c(-c3cc(C)no3)c(C)c2c1 [Compound 144] | +++ (between 100- to 1000-fold selective) |
| 10 to 100 | < 1 | CCc1cc(F)c2nc(N3CC[C@H](N[C@@H]4CCCOC4)C[C@H]3C)c(-c3ccn(C)n3)c(C)c2c1 [Compound 122] | +++ (between 100- to 1000-fold selective) |
| 100 to 1000 | 1 to 10 | CCc1cc(F)c2nc(N3CC[C@@H](N[C@@H]4CCCOC4)[C@H](C)C3)c(-c3ccn(C)n3)c(C)c2c1 [Compound 114] | ++ (between 10- and 100-fold selectivity) |
| > 1000 | 1 to 10 | CCc1cc(F)c2nc(N3CCN(C[C@H]4CCCO4)C[C@H]3C)c(-c3nc(C)no3)c(C)c2c1 [Compound 30] | +++ (between 100- to 1000-fold selective) |
| > 1000 | ≥ 100 | CCc1cc(-c2cc[nH]n2)c2nc(N3CCNC[C@H]3C)c(-c3ccn(C)n3)c(C)c2c1 [Compound 12, (R)-6-ethyl-4-methyl-3-(1-methyl-1H-pyrazol-3-yl)-2-(2-methylpiperazin-1-yl)-8-(1H-pyrazol-3-yl)quinoline] | + (less than 10-fold selectivity) |
